Test results from patent publication US20220241260A9, “Pharmaceutical Compositions Of Metabotropic Glutamate 5 Receptor (MGLU5) Antagonists” (F. HOFFMANN-LA ROCHE AG, priority 2010, published 2022).

Experiment: BCS classification
Assay type: physicochemical
Conditions: because of pH dependent solubility in physiological range

BCS class: BCS class 2
Structure (SMILES): Cc1nc(C#Cc2ccnc(Cl)c2)c(C)n1-c1ccc(F)cc1 [2-Chloro-4-[1-(4-fluoro-phenyl)-2,5-dimethyl-1H-imidazol-4-ylethynyl]-pyridine]
